Laboratory results published in the supplement of paper PMC10307832.

How the values were obtained:
Assay in all cases: relative viability (nuclei count vs DMSO), 5 days (fraction); higher = more cells survive
[1] = compound: CC(C)N(CCCNC(=O)Nc1ccc(C(C)(C)C)cc1)C[C@H]1O[C@@H](n2ccc3c(N)ncnc32)[C@H](O)[C@@H]1O + CCNC(=O)c1noc(-c2cc(C(C)C)c(O)cc2O)c1-c1ccc(CN2CCOCC2)cc1 [Luminespib] (partner 0.01 µM)
Method in brief: (§1)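 Relative viability is defined as nuclei in treated wells over nuclei in vehicle wells. Duplicate plates were run and medians reported. Lung cancer cell lines in 1536-well plates were dosed by pin tool one day after seeding, with one drug or with a fixed anchor-drug dose plus five library-drug doses (not always all listed) in √10 steps, and nuclei were counted after 5 days.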

[2] = compound: CC(C)N(CCCNC(=O)Nc1ccc(C(C)(C)C)cc1)C[C@H]1O[C@@H](n2ccc3c(N)ncnc32)[C@H](O)[C@@H]1O + CC1(C)CCC(c2ccc(Cl)cc2)=C(CN2CCN(c3ccc(C(=O)NS(=O)(=O)c4ccc(N[C@H](CCN5CCOCC5)CSc5ccccc5)c(S(=O)(=O)C(F)(F)F)c4)cc3)CC2)C1 [Navitoclax] (partner 0.5 µM)
Method in brief: as §1

[3] = compound: CC(C)N(CCCNC(=O)Nc1ccc(C(C)(C)C)cc1)C[C@H]1O[C@@H](n2ccc3c(N)ncnc32)[C@H](O)[C@@H]1O + Cc1nc(Nc2ncc(C(=O)Nc3c(C)cccc3Cl)s2)cc(N2CCN(CCO)CC2)n1 [Dasatinib] (partner 0.075 µM)
Method in brief: as §1

[4] = compound: CC(C)N(CCCNC(=O)Nc1ccc(C(C)(C)C)cc1)C[C@H]1O[C@@H](n2ccc3c(N)ncnc32)[C@H](O)[C@@H]1O + NC(=O)Nc1cc(-c2cccc(F)c2)sc1C(=O)N[C@H]1CCCNC1 [AZD7762] (partner 0.2 µM)
Method in brief: as §1

Cell Line | relative viability ([1]; first compound 0.08 µM) | relative viability ([1]; first compound 0.253 µM) | relative viability ([1]; first compound 0.8 µM) | relative viability ([1]; first compound 2.53 µM) | relative viability ([1]; first compound 8 µM) | relative viability ([2]; first compound 0.08 µM) | relative viability ([2]; first compound 0.253 µM) | relative viability ([2]; first compound 0.8 µM) | relative viability ([2]; first compound 2.53 µM) | relative viability ([2]; first compound 8 µM) | relative viability ([3]; first compound 0.08 µM) | relative viability ([3]; first compound 0.253 µM) | relative viability ([3]; first compound 0.8 µM) | relative viability ([3]; first compound 2.53 µM) | relative viability ([3]; first compound 8 µM) | relative viability ([4]; first compound 0.08 µM) | relative viability ([4]; first compound 0.253 µM) | relative viability ([4]; first compound 0.8 µM) | relative viability ([4]; first compound 2.53 µM) | relative viability ([4]; first compound 8 µM)
LC-2-ad | 0.935 | 0.973 | 1.07 | 0.893 | 1.03 | 0.612 | 0.409 | 0.435 | 0.458 | 0.462 | 0.528 | 0.569 | 0.527 | 0.502 | 0.632 | 0.834 | 0.802 | 0.677 | 0.787 | 0.771
LCLC-97TM1 | 0.699 | 0.647 | 0.705 | 0.666 | 0.707 | 0.407 | – | 0.296 | 0.273 | 0.432 | 0.897 | 0.783 | 0.933 | 0.822 | 0.82 | 0.233 | 0.266 | 0.354 | 0.235 | 0.147
LK-2 | 0.185 | 0.193 | 0.191 | 0.169 | 0.214 | 0.848 | 0.775 | 0.929 | 0.768 | 0.711 | 0.447 | 0.294 | 0.267 | 0.368 | 0.302 | – | 0.332 | 0.628 | 0.428 | 0.322
LOU-NH91 | 0.381 | 0.328 | 0.283 | 0.333 | 0.368 | 0.628 | 0.581 | – | 0.652 | 0.606 | 0.572 | 0.579 | 0.485 | 0.553 | 0.529 | 0.751 | 0.697 | – | 0.763 | 0.767
LU99A | 0.234 | 0.277 | 0.253 | 0.317 | 0.222 | 0.745 | 0.717 | 0.747 | 1.01 | 0.881 | 0.477 | 0.381 | 0.679 | 0.597 | 0.479 | 0.416 | 0.316 | 0.421 | 0.473 | 0.317
LXF-289 | 0.731 | 0.679 | 0.65 | 0.669 | 0.71 | 1 | 0.969 | 0.957 | 0.988 | 0.854 | 0.281 | 0.271 | 0.231 | 0.186 | 0.229 | 1.1 | 1.1 | 1.09 | 1.12 | 1
NCI-H23 | 0.224 | 0.23 | 0.199 | 0.233 | 0.21 | 0.771 | – | 0.698 | 0.822 | 0.75 | 0.685 | 0.645 | 0.716 | 0.798 | 0.725 | 0.252 | – | 0.226 | 0.201 | 0.305
NCI-H322M | 0.92 | 0.759 | 0.889 | 0.76 | 0.913 | 1.16 | 1.09 | 1.19 | 1.2 | 1.16 | 0.278 | 0.266 | 0.264 | 0.24 | 0.284 | 0.529 | 0.541 | 0.751 | 0.51 | 0.803
NCI-H441 | 0.39 | 0.334 | – | 0.278 | 0.368 | – | 0.66 | 0.682 | 0.698 | 0.63 | 0.718 | 0.535 | – | 0.544 | 0.535 | 1.04 | 1.13 | – | 1.07 | 1.33
NCI-H460 | 0.0341 | 0.0252 | 0.0359 | 0.0291 | 0.0376 | 1.01 | 1.16 | 1.12 | 1.27 | 0.9 | 0.41 | 0.531 | 0.453 | 0.504 | 0.456 | 0.725 | 0.58 | 0.605 | 0.499 | 0.585
NCI-H596 | 1.06 | – | 0.923 | 0.955 | 1.12 | 0.98 | 0.877 | 0.909 | 1.01 | 0.992 | 0.603 | – | 0.528 | 0.561 | 0.619 | 1.09 | 0.943 | 0.926 | 1.23 | 1.09
NCI-H647 | 0.267 | 0.461 | – | 0.241 | 0.245 | 0.894 | – | 1.07 | 1.06 | 1.05 | 0.183 | 0.15 | – | 0.205 | 0.212 | 0.457 | 0.523 | 0.509 | 0.366 | 0.414
NCI-H727 | 0.372 | 0.453 | 0.445 | 0.232 | 0.471 | 0.416 | 0.389 | 0.499 | 0.534 | 0.506 | 0.381 | 0.427 | 0.345 | 0.393 | 0.333 | 0.634 | 0.624 | 0.649 | 0.328 | 0.694
NCI-H838 | 0.366 | 0.273 | 0.307 | 0.331 | 0.286 | 1.12 | 1.1 | 1.2 | 1.15 | 1.14 | 0.268 | 0.262 | 0.279 | 0.263 | 0.31 | 0.864 | 0.909 | 0.912 | 0.806 | 0.95
NCI-H1355 | 0.763 | 0.614 | 0.679 | 0.609 | 0.665 | 0.854 | 0.909 | – | 0.911 | 0.935 | 0.71 | 0.548 | 0.379 | 0.698 | 0.668 | 0.703 | 0.68 | 0.642 | 0.75 | 0.695
NCI-H1395 | 0.632 | 0.734 | 0.571 | 0.884 | 0.798 | 1.17 | 1.1 | – | 1.23 | 1.53 | 0.471 | 0.433 | 0.392 | 0.441 | 0.463 | 0.424 | 0.412 | 0.42 | 0.421 | 0.38
NCI-H1437 | 1.07 | 1.02 | 1.14 | 1.15 | 1.05 | 1 | 1.11 | 1.07 | 1.14 | 1.04 | 0.359 | 0.37 | 0.443 | 0.337 | 0.327 | 1.13 | 1.06 | 1.15 | 1.07 | 1.14
